In patent publication US4745124A, “Orally effective anti-hypertensive agents” (priority 1983, dated 1988):
Where “and” joins values, the source holds several entries; their conditions need not be identical. Equal values may be shown once.

Assays:
[1] = system: pressor effects of angiotensin I; assay: oral effectiveness: blood pressure response to angiotensin I in anesthetized rats; format: in vivo, rat
Procedure, shortened: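 Fasted rats under pentobarbital anesthesia (50-60 mg/kg i.p.), ventilated, with carotid arterial pressure recorded; i.v. angiotensin I (80 ng, 160 ng or 400 ng/kg) or angiotensin II (80 ng) challenges repeated at timed intervals after oral gavage of compound (2-20 mg/kg, 10 mg, 17 or 23 μmol/kg) in aqueous NaHCO3.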

[2] = system: pressor effects of angiotensin II; assay: oral: blood pressure response to angiotensin II in anesthetized rats; format: in vivo, rat; settings: 2 or 5 mg/kg, angiotensin II 80 ng
Method: Rats (210-290 g body weight) were fasted overnight and then anesthetized with intraperitoneal pentobarbital, 50-60 mg/kg. Tracheostomy was performed and the animals were ventilated mechanically. A cannula was inserted into a femoral vein for injection of angiotensin I or II, and a second cannula was inserted into a common carotid artery for direct measurement of arterial blood pressure. Heparin, 1,000 units, was injected via the femoral vein to prevent coagulation. Blood pressure was measured with a pressure transducer connected to a polygraph. The rats were injected with 80 ng of angiotensin I or angiotensin II in 20 μl of 0.9 g % NaCl; an amount of antiotensin I or II sufficient to raise mean arterial blood pressure by 27-40 mm Hg. After the responsiveness of a given rat to angiotensins I and II was established, compound (I), at 2 or 5 mg/kg (drug dissolved in 0.5 ml of H2 O plus 10 μl of 1N NaHCO3), was given via a stomach tube. At timed intervals, the effects of 80 ng of angiotensin I or angiotensin II on mean arterial blood pressure were tested.
Rats were prepared as described in Example 222. Compound (II) [N-benzoyl-L-phenylalanylthiopropanoyl)-L-proline] was given orally, via a stomach tube, at a dose of 12 mg/kg or 20 mg/kg. Compound (II) was dissolved in 0.5 ml of H2 O plus 10 μl of 1N NaHCO3. […]

[3] = biological target: T1, angiotensin converting enzyme (human urinary ACE) (Homo sapiens, UniProt P12821); assay: ACE activity assay, I50 (Example 216A); format: biochemical; settings: human urinary ACE; Benzoyl-GlyHisLeu 1×10^-4 M; Hepes pH 8.0; 37° C; in vitro; read-out: I50
T1 construct: ACE purified from human urine; from tissue; host or cells: human urine (ultrafiltration and Sephacryl S-200, first eluting peak; prepared as in Ryan et al., Tissue and Cell 10, 555 (1978))
T1 sequence (P12821 30-1232 limits assumed): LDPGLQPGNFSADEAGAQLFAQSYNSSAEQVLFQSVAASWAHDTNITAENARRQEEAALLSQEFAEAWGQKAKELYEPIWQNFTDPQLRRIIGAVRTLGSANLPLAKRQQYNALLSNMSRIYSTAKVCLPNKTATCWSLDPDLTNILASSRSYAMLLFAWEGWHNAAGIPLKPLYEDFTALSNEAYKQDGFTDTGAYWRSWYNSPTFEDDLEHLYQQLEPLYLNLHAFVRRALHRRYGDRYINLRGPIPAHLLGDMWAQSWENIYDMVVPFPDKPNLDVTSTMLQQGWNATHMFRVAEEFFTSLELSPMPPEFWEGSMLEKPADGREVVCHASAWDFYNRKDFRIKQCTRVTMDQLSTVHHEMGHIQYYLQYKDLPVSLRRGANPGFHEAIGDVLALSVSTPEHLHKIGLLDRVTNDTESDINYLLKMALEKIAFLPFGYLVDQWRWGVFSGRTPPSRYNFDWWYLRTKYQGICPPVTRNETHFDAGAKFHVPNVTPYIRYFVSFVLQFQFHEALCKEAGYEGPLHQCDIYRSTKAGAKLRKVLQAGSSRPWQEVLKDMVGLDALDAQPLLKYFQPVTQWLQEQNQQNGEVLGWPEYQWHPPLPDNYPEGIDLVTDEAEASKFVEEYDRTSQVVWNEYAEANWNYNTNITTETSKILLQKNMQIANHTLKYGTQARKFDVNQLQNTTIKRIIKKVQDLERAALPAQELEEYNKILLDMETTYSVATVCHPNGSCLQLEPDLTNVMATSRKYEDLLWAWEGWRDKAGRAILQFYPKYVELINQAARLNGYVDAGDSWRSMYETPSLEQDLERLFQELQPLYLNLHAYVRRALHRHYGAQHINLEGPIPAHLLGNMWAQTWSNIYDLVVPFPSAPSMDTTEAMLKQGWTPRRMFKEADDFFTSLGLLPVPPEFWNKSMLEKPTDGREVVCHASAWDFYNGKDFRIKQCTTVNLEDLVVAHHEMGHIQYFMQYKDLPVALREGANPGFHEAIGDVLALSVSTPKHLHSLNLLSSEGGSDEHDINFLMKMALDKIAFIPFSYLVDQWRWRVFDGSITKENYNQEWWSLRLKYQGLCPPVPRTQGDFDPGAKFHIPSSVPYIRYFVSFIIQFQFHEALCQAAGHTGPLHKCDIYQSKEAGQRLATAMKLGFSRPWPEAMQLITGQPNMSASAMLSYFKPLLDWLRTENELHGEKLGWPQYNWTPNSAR

[4] = resistance of thioester compounds to alkaline hydrolysis; format: physicochemical
Description: Therefore the observed inhibitory effects cannot be accounted for by postulating spontaneous hydrolysis of the thioester bond to regenerate the free sulfhydryl group.

[5] = system: serum ACE; assay: oral effectiveness: intrinsic serum ACE activity in rats; format: in vivo, female Sprague-Dawley rat; settings: oral 1 mg/kg
Method: B. In certain experiments, as identified, an alternative assay system was employed using [^3 H]-HipGlyGly as substrate as described by Ryan, J. W., et al., Biochem. J. 167 501 (1977).
Female Sprague-Dawley rats, approximately 250 g weight, were fasted overnight and then administered either 0.5 ml of saline, via stomach tube, or 0.5 ml saline containing compound (I) at a dose of 1 mg per kg of body weight. At timed intervals the rats were beheaded using a guillotine and 3 ml-5 ml blood was collected. The sera were assayed for intrinsic ACE activity, using the assay of Example 216B.

C[C@H](CSC(=O)C(Cc1ccccc1)NC(=O)c1ccccc1)C(=O)N1CCC[C@H]1C(=O)O (stereo partly drawn) [Compound (I), 2-benzoylphenylalanylthio-2-D-methylpropanoyl-L-proline]
Blood Pressure Response to 80 ng of Angiotensin I ([1]; oral 2 mg/kg, 6 min, Rat 3): 111 % of control | Blood Pressure Response to 80 ng of Angiotensin I ([1]; oral 2 mg/kg, 12 min, Rat 3): 93 % of control | Blood Pressure Response to 80 ng of Angiotensin I ([1]; oral 2 mg/kg, 18 min, Rat 3): 81 % of control | Blood Pressure Response to 80 ng of Angiotensin I ([1]; oral 2 mg/kg, 24 min, Rat 3): 85 % of control | Blood Pressure Response to 80 ng of Angiotensin I ([1]; oral 2 mg/kg, 35 min, Rat 3): 56 % of control | Blood Pressure Response to 80 ng of Angiotensin I ([1]; oral 2 mg/kg, 58 min, Rat 3): 56 % of control | Blood Pressure Response to 80 ng of Angiotensin I ([1]; oral 2 mg/kg, 68 min, Rat 3): 52 % of control | Blood Pressure Response to 80 ng of Angiotensin I ([1]; oral 2 mg/kg, 88 min, Rat 3): 30 % of control | Blood Pressure Response to 80 ng of Angiotensin I ([1]; oral 2 mg/kg, 118 min, Rat 3): 37 % of control | Blood Pressure Response to 80 ng of Angiotensin I ([1]; oral 2 mg/kg, 138 min, Rat 3): 60 % of control | Blood Pressure Response to 80 ng of Angiotensin I ([1]; oral 2 mg/kg, 169 min, Rat 3): 37 % of control | Blood Pressure Response to 80 ng of Angiotensin I ([1]; oral 2 mg/kg, 185 min, Rat 3): 37 % of control | Blood Pressure Response to 80 ng of Angiotensin I ([1]; oral 2 mg/kg, 205 min, Rat 3): 44 % of control | Blood Pressure Response to 80 ng of Angiotensin I ([1]; oral 5 mg/kg, 6 min, Rat 2): 67 % of control | Blood Pressure Response to 80 ng of Angiotensin I ([1]; oral 5 mg/kg, 12 min, Rat 1): 41 % of control | Blood Pressure Response to 80 ng of Angiotensin I ([1]; oral 5 mg/kg, 12 min, Rat 2): 57 % of control | Blood Pressure Response to 80 ng of Angiotensin I ([1]; oral 5 mg/kg, 18 min, Rat 1): 36 % of control | Blood Pressure Response to 80 ng of Angiotensin I ([1]; oral 5 mg/kg, 24 min, Rat 2): 43 % of control | Blood Pressure Response to 80 ng of Angiotensin I ([1]; oral 5 mg/kg, 35 min, Rat 1): 23 % of control | Blood Pressure Response to 80 ng of Angiotensin I ([1]; oral 5 mg/kg, 35 min, Rat 2): 37 % of control | Blood Pressure Response to 80 ng of Angiotensin I ([1]; oral 5 mg/kg, 48 min, Rat 1): 18 % of control | Blood Pressure Response to 80 ng of Angiotensin I ([1]; oral 5 mg/kg, 48 min, Rat 2): 17 % of control | Blood Pressure Response to 80 ng of Angiotensin I ([1]; oral 5 mg/kg, 58 min, Rat 1): 23 % of control | Blood Pressure Response to 80 ng of Angiotensin I ([1]; oral 5 mg/kg, 58 min, Rat 2): 17 % of control | Blood Pressure Response to 80 ng of Angiotensin I ([1]; oral 5 mg/kg, 68 min, Rat 2): 20 % of control | Blood Pressure Response to 80 ng of Angiotensin I ([1]; oral 5 mg/kg, 78 min, Rat 2): 17 % of control | Blood Pressure Response to 80 ng of Angiotensin I ([1]; oral 5 mg/kg, 88 min, Rat 2): 13 % of control | Blood Pressure Response to 80 ng of Angiotensin I ([1]; oral 5 mg/kg, 118 min, Rat 1): 23 % of control | Blood Pressure Response to 80 ng of Angiotensin I ([1]; oral 5 mg/kg, 185 min, Rat 2): 27 % of control | Blood Pressure Response to 80 ng of Angiotensin I ([1]; oral 5 mg/kg, 205 min, Rat 2): 33 % of control | Blood Pressure Response to 80 ng of Angiotensin I ([1]; oral 5 mg/kg, 213 min, Rat 2): 33 % of control | Blood Pressure Response to 80 ng of Angiotensin I ([1]; oral 5 mg/kg, 226 min, Rat 2): 43 % of control | duration of drug action ([1]; oral, 2 or 5 mg/kg): > 226 min | effects of angiotensin II (specificity) [2]: not inhibited | IC50 [3]: 40 nM and 10 nM | resistance to alkaline hydrolysis [4]: surprisingly resistant to alkaline hydrolysis | hydrolysis at pH 9.5 in 1M NaHCO3 ([4]; pH 9.5, 1M NaHCO3): not hydrolyzed | Serum ACE activity ([5]; 5 min, run 1): 100% of Control | Serum ACE activity ([5]; 5 min, run 2): 100% of Control | Serum ACE activity ([5]; 10 min, run 1): 65% of Control | Serum ACE activity ([5]; 10 min, run 2): 52% of Control | Serum ACE activity ([5]; 30 min, run 1): 50% of Control | Serum ACE activity ([5]; 30 min, run 2): 45% of Control | Serum ACE activity ([5]; 60 min, run 1): 50% of Control | Serum ACE activity ([5]; 60 min, run 2): 42% of Control | Serum ACE activity ([5]; 90 min, run 1): 20% of Control | Serum ACE activity ([5]; 90 min, run 2): 20% of Control
